Measured values taken from patent publication US11453632B2, “1-phenyl-2-phenylethane derivative” (KAO CORPORATION, priority 2018, dated 2022).

Experiments:
ERα LBD = biological target: T1, ERα LBD (Homo sapiens, UniProt P03372); experiment: Ability to bind to ERα: pBIND-ERα LBD / GAL4 luciferase reporter in HEK293 cells; assay type: cell-based; design: key: firefly luciferase / Renilla luciferase luminescence ratio; settings: negative control 0.00847035
T1 construct: host or cells: HEK293
T1 sequence (P03372 311-547 limits assumed): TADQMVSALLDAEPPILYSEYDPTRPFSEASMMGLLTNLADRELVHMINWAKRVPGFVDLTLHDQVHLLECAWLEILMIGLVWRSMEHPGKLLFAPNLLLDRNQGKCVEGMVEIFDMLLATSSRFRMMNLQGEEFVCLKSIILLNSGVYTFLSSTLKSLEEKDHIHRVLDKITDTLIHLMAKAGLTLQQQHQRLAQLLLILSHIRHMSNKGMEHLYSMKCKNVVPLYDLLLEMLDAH
Protocol: A human kidney-derived cell line HEK293 was cultured (37° C., 5% CO2) in Dulbecco's modified Eagle medium (hereinafter, abbreviated to DMEM) containing 10% (v/v) fetal bovine serum (FBS) and penicillin/streptomycin.
2) Measurement of Binding Activity Against ERs
Specifically, HEK293 cells were inoculated at a cell density of 4.0×10^4 cells/well to a 96-well plate. After 12 hours therefrom, the medium was replaced with a culture solution (DMEM containing 5% (v/v) charcoal-treated serum). The cells were cotransfected with pBIND-ERα for the expression of ERα LBD or pBIND-ERβ for the expression of ERβ LBD (Promega Corp.) and pGL4.35[luc2P/9XGAL4UAS/Hygro](Promega Corp.) using Lipofectamine 2000 (Invitrogen Corp.) according to the protocol attached to the product. 24 hours after transfection, the medium was replaced with a culture solution containing a test sample, followed by culture for another 24 hours. The activity measurement of firefly luciferase (index for the ligand binding activity of ER) and Renilla reniformis luciferase (index for the transfection efficiency of the plasmids) was carried out using Dual-Glo™ Luciferase Assay System (Promega Corp.) according to the attached protocol. The luminescence intensity of the firefly luciferase was divided by the luminescence intensity of the Renilla reniformis luciferase to calculate a relative light unit (RLU).

[1] = test system: back skin browning induced by testosterone; experiment: Effect on sebum secretion (back skin browning) in testosterone-treated rat; assay type: in vivo; settings: testosterone 3 mg/kg/day plus test substance, subcutaneous osmotic pump, 28 days
Excerpt: 12-week-old male Slc:SD (SPF) rats were obtained from Japan SLC, Inc. An acclimatization period was established for 1 week after receipt. During the acclimatization period, the rats were allowed to freely ingest a powder diet (AIN-93G). 2) Implantation of Osmotic Pump After body weight measurement, back hair was shaved under isoflurane (AbbVie GK) inhalation anesthesia, and carprofen was subcutaneously administered to the rats. Then, an incision of approximately 1 cm at the maximum was made on the cranial side in the back. An osmotic minipump Alzet (Muromachi Kikai Co., Ltd.) containing testosterone and compound 17-F or finasteride (Sigma-Aldrich Co. LLC) was subcutaneously implanted. From this osmotic pump, testosterone (3 mg/kg body weight/day) (Sigma-Aldrich Co. LLC) and compound 17-F (0.1 mg/body weight/day or 1 mg/kg body weight/day) or finasteride (0.1 mg/kg body weight/day or 1 mg/kg body weight/day) were continuously administered for 28 days. Since the implantation of the osmotic pump, the rats were allowed to freely ingest customized feed AIN-93G (Oriental Yeast Co., Ltd.) free from components derived from soybeans. 3) Photographing of Skin and Harvesting of Prostate After a lapse of 28 days, body weights were measured, and subsequently, the rats were euthanized by blood letting under isoflurane anesthesia. […] Wet weights were measured. […]

[2] = test system: uterus of ovariectomized rat; experiment: Uterus weight in ovariectomized (OVX) rat; assay type: in vivo
Protocol: 8-week-old female Crl:CD (SD) rats were obtained from Charles River Laboratories Japan, Inc. and individually identified by the ear punching method on the receipt date. Then, an acclimatization period was established for 1 week. The animals were raised in a rearing room under a set environment involving a temperature of 22±3° C., a humidity of 50±20%, air ventilation from 13 to 17 times/hour, and a lighting time from 8:00 to 20:00. During the acclimatization period, the rats were allowed to freely ingest solid feed CRF-1 (Oriental Yeast Co., Ltd.). Since the feeding with CRF-1, the rats were allowed to freely ingest customized feed AIN-93G (Oriental Yeast Co., Ltd.) free from components derived from soybeans.
On the end date of acclimatization and the following day, the flank cavity was opened under isoflurane anesthesia to harvest the right and left ovaries including fallopian tubes. Other non-OVX rats were subjected to only opening and suture (sham surgery). Immediately thereafter, an antibiotic was subcutaneously administered at a dose of 100 μl/animal. After the surgery, the sham surgery or OVX animals were given customized feed and raised for approximately 1 week.
From 1.5 hours before a shift from the light phase to the dark phase (18:30), a negative solvent (DMSO) or a test substance was subcutaneously administered at a dose of 0.5 ml/kg to the back of the neck according to Table 3 described below using a syringe and an injection needle.
After the completion of all procedures of measurement and analysis, the rats were euthanized by blood letting under isoflurane anesthesia, and the uterus was harvested. Wet weights were measured.
Skin temperatures differed largely among individuals, and the Smirnov-Grubbs test was conducted in order to exclude outliers beforehand. Results of measuring tail skin temperatures and results of measuring uterus weights were statistically analyzed by testing using the Dunnett's test.

Compound: Oc1ccc(CC(C=C(F)F)c2ccc(O)cc2F)c(F)c1 (stereo not drawn) [Compound 17-F, 4,4′-(4,4-difluorobut-3-ene-1,2-diyl)bis(3-fluorophenol)]
- relative light unit (RLU), ligand binding activity ERα (ERα LBD; 0.01 nM): 0.02573
- relative light unit (RLU), ligand binding activity ERα (ERα LBD; 0.1 nM): 0.06025
- relative light unit (RLU), ligand binding activity ERα (ERα LBD; 1 nM): 0.2198
- relative light unit (RLU), ligand binding activity ERα (ERα LBD; 10 nM): 1.873
- relative light unit (RLU), ligand binding activity ERα (ERα LBD; 100 nM): 3.193
- skin browning induced by testosterone (sebum secretion, FIG. 3) [1]: markedly inhibited
- uterus wet weight (FIG. 6) ([2]; 4 μg/kg/day subcutaneous, vs negative solvent group): no change in uterus weight was confirmed
- uterus wet weight (FIG. 6) ([2]; increased dose of compound 17-F (40, 400 μg/kg/day) subcutaneous): elevated in a concentration-dependent manner
- melting point: 90 to 91 °C
